According to patent US10100006B2, “Compound having immune disease treatment effect and use thereof” (THE CATHOLIC UNIVERSITY OF KOREA INDUSTRY—ACADEMIC …, priority 2014, dated 2018):

Key:
[1] = test system: IL-17; assay: Production of inflammatory cytokines, ELISA: IL-17, mouse spleen cells; type: cell-based
[2] = test system: IFN-r; assay: Production of inflammatory cytokines, ELISA: IFN-r, mouse spleen cells; type: cell-based
[3] = test system: Treg cells; assay: Treg cell-induced activity, flow cytometry; type: cell-based, mouse; settings: TCR condition
[4] = test system: cells in each test group disclosed in Table 3; assay: Cytotoxicity analysis (MTT assay); type: cell-based, mouse; human; settings: treatment for each concentration, 72 hrs; normal cells and disease-group cells; compared with control or metformin-treated group
Experimental: In order to verify whether the compounds synthesized in the present invention causes the cytotoxicity in the cells, an MTT assay was performed, target cells were divided to be the number of 2×10^5 cells per well on a 96 well plate, treated with the compounds of the present invention for each concentration, incubated for 72 hrs, added with an MTT solution (0.5% 3-4,5-dimethyl thiazol-2-yl)-2,5-diphenyl-2H-tetrazolium bromide), and incubated for 4 hrs again. Thereafter, absorbance at 540 nm was measured by an enzymelinked immunospecific assay (ELISA) meter to observe the cytotoxicity.
In order to verify whether the novel compounds synthesized in Example 1 have the cytotoxicity, a cell survival rate was verified through the MTT assay by targeting cells in each test group disclosed in Table 3 above. That is, the cells of each test group were divided according to the number of 2×10^5 cells per well and treated with the novel synthesized compounds of the present invention for each concentration, and the cell survival rate was analyzed.

[5] = test system: TNF-a; assay: Production of inflammatory cytokines, ELISA: TNF-a, mouse spleen cells; type: cell-based
[6] = test system: IgG2; assay: Autoantibody production, sandwich ELISA: IgG2; type: cell-based, mouse
[7] = test system: IFN-r; assay: Production of inflammatory cytokines, ELISA: IFN-r, lymphocytes of human peripheral blood; type: cell-based; settings: D: Lymphocytes of human peripheral blood
Experimental: (§1) Further, in a lupus-developed mouse model, a sanroque mouse used in a lupus model in the art was used and the human P.B group was used by obtaining lymphocytes from the human peripheral blood. The isolation of spleen cells and the isolation of lymphocytes from each mouse and the human peripheral blood were performed by a general method which was widely known in the art and the obtained cells were incubated for 72 h under the anti-CD3 0.5 μg/ml stimulation condition, activated, and then used.
(§2) In order to verify whether the novel compounds of the present invention have an effect on inflammation and the production of inflammatory cytokines as cause substances of the immune diseases, the inventors analyzed the production degree of IL-17, IL-6, TNF-α, IFN-γ, MMP-9, and STAT-3 and the expression degree of mRNA of these cytokines by targeting each test group. The production degree of the inflammatory cytokines was analyzed through an ELISA after obtaining a supernatant by targeting cells which were treated with the compound of the present invention and incubated, and particularly, the cells reacted with cytokine-specific antibodies anti-IL-17, anti-IL-6, anti-TNF-α, anti-IFN-γ, anti-MMP-9, and anti-STAT-3 all night at […] and then non-specific binding was blocked with a blocking solution (1% BSA/PBST). Thereafter, each biotinylated antibody was reacted at room temperature for 2 hrs, washed four times, and then reacted at room temperature for 2 hrs after diluting and adding an extravidin-alkaline phosphatase conjugate. Thereafter, a PNPP/DEA solution was added and colored, and then the absorbance was measured at a wavelength of 405 nm.

[8] = test system: IL-17; assay: Production of inflammatory cytokines, ELISA: IL-17, lymphocytes of human peripheral blood; type: cell-based; settings: D: Lymphocytes of human peripheral blood
Experimental: as §1, §2

[9] = test system: TNF-a; assay: Inflammatory gene expression, RT-PCR: TNF-a; type: cell-based, mouse; settings: control = 1
[10] = test system: STAT3; assay: Inflammatory gene expression, RT-PCR: STAT3; type: cell-based; settings: A: Normal mouse cells; control = 1
[11] = test system: IgG1; assay: Autoantibody production, sandwich ELISA: IgG1; type: cell-based, mouse
[12] = test system: MMP-9; assay: Inflammatory gene expression, RT-PCR: MMP-9; type: cell-based, mouse; settings: control = 1
[13] = test system: Th17 cells; assay: Inhibition of Th17 cells, flow cytometry; type: cell-based, mouse
[14] = test system: Total IgG; assay: Autoantibody production, sandwich ELISA: Total IgG; type: cell-based, mouse
[15] = test system: IL-6; assay: Production of inflammatory cytokines, ELISA: IL-6, mouse spleen cells; type: cell-based
[16] = test system: osteoclasts; assay: Inhibition of differentiation of osteoclasts, TRAP staining; type: cell-based, mouse; settings: M-CSF and RANKL

CCN(C(=N)NC(=N)N)c1ccc(F)c(F)c1 [SD-281, N-(3,4-Difluorophenyl)-N-ethylbiguanide]
IL-17 production ([1]; A: Normal mouse cells): 1.7 ng/mL
IL-17 production ([1]; B: Rheumatoid arthritis cells): 2.2 ng/mL
IL-17 production ([1]; C: Lupus cells): 0.6 ng/mL
IFN-r production ([2]; A: Normal mouse cells): 5.8 ng/mL
IFN-r production ([2]; B: Rheumatoid arthritis cells): 5.3 ng/mL
IFN-r production ([2]; C: Lupus cells): 10 ng/mL
Treg ([3]; A: Normal mouse cells): 2
Treg ([3]; B: Rheumatoid arthritis cells): 4.6
Treg ([3]; C: Lupus cells): 2.8
cytotoxicity (cell survival rate, MTT) [4]: cytotoxicity was not observed
TNF-a production ([5]; A: Normal mouse cells): 0.5 ng/mL
TNF-a production ([5]; B: Rheumatoid arthritis cells): 0.4 ng/mL
TNF-a production ([5]; C: Lupus cells): 0.7 ng/mL
IgG2 ([6]; A: Normal mouse cells): 35.6 ng/mL
IgG2 ([6]; B: Rheumatoid arthritis cells): 33.5 ng/mL
IgG2 ([6]; C: Lupus cells): 84.3 ng/mL
IFN-r production [7]: 0.1 ng/mL
IL-17 production [8]: 0.1 ng/mL
TNF-a gene expression ([9]; A: Normal mouse cells): 0.2 gene expression
TNF-a gene expression ([9]; B: Rheumatoid arthritis cells): 0.6 gene expression
TNF-a gene expression ([9]; C: Lupus cells): 0.1 gene expression
STAT3 gene expression [10]: 1.2 gene expression
IgG1 ([11]; A: Normal mouse cells): 83.8 ng/mL
IgG1 ([11]; B: Rheumatoid arthritis cells): 135.2 ng/mL
IgG1 ([11]; C: Lupus cells): 258.2 ng/mL
MMP-9 gene expression ([12]; A: Normal mouse cells): 0.5 gene expression
MMP-9 gene expression ([12]; B: Rheumatoid arthritis cells): 0.4 gene expression
MMP-9 gene expression ([12]; C: Lupus cells): 0.4 gene expression
Th17 ([13]; TCR condition, A: Normal mouse cells): 1.2
Th17 ([13]; TCR condition, B: Rheumatoid arthritis cells): 1.5
Th17 ([13]; TCR condition, C: Lupus cells): 0.8
Th17 ([13]; Th17 condition (Th17 differentiation condition), A: Normal mouse cells): 0.4
Total IgG ([14]; A: Normal mouse cells): 2.3 ng/mL
Total IgG ([14]; B: Rheumatoid arthritis cells): 58.1 ng/mL
Total IgG ([14]; C: Lupus cells): 124.5 ng/mL
IL-6 production ([15]; A: Normal mouse cells): 1.4 ng/mL
IL-6 production ([15]; B: Rheumatoid arthritis cells): 1.4 ng/mL
IL-6 production ([15]; C: Lupus cells): 1 ng/mL
TRAP + Cell ([16]; A: Normal mouse cells): 196
TRAP + Cell ([16]; B: Rheumatoid arthritis cells): 57
